Source: US11884734B2, “Anti-MET antibodies and methods of use thereof” (Celldex Therapeutics, Inc., priority 2015, dated 2024)

Tests used:
[1] = tested on: MET, AKT and MAPK phosphorylation; test: Akt and MAPK phosphorylation analysis by western blot in A549 cells; type: cell-based, human; conditions: HGF treatment
Description: Western blots were generated from total protein separated on a 10% SDS-PAGE gel. Resolved protein was transferred to nitrocellulose (Bio-Rad), blocked for 1 h with 5% skim milk at 25° C., and then incubated with the indicated antibody overnight at 4° C. The anti-pAkt antibody, anti-pMAPK antibody (Cell Signaling cat. No. 9271 and Cell Signaling cat. No. 4370, respectively), and anti-1234/1235 MET XP antibody (Cell Signaling cat. No. 3077) were used at a concentration of 1 μg/mL in 5% skim milk. Secondary mouse and rabbit antibodies (GE Healthcare) were used at a 1:5000 dilution for 1 h at 25° C. SuperSignal® West Picto Chemiluminescent HRP Substrate (Thermo Scientific cat. No. 34078) was used as directed.

U87MG tumor cells = test: U87MG orthotopic mouse model (bioluminescence); type: in vivo; conditions: 25 mg/kg; compared with control chimeric IgG1 anti-KLH antibody
Description: The ability of the anti-MET antibodies to inhibit tumor growth in vivo is assessed as described in Sections 6.2.1.3, 6.2.1.4, and 6.2.1.5. […] Treatment was performed biweekly, every three to four days, for seven weeks.

MET [2] = target: T1, MET (Homo sapiens, UniProt P08581); test: HGF-induced MET degradation in U87MG cells; type: cell-based; conditions: U87MG cells (wild-type MET)
Description: (§1) MET exon 14 mutations have been reported in many cancers (The Cancer Genome Atlas Research Network, 2014, Nature, 511(7511):543-550; Frampton et al., 2015, Cancer Discov. 5(8):850-859). MET exon 14 mutations confer reduced HGF-induced receptor degradation. Deletion of exon 14 (Leu964-Asp1010) removes the Tyr1003 site necessary for Cbl binding leading to a substantial decrease HGF-induced receptor degradation as previously reported (Kong-Beltram et al., 2006, Cancer Res. 66(1):283-289). […] In a non-small-cell lung cancer cell line H596, a functional MET protein is expressed without the 47 amino acids encoded by exon 14 (Kong-Beltram et al., 2006, Cancer Res. 66(1):283-289).

MET [3] = target: T1, MET; test: HGF-induced MET degradation in A549 cells; type: cell-based; set-up: cell lines expressing wild-type MET such as A549 and U87MG cells; endogenous in cells; host or cells: A549; conditions: A549 cells (wild-type MET)
Description: as §1

MET [4] = target: T2, MET (Homo sapiens, UniProt P08581, DEL964-1010); test: MET degradation in H596 cells (exon 14 deleted MET); type: cell-based; conditions: 1 nM HGF, 24 hrs
T2 construct: In a non-small-cell lung cancer cell line H596, a functional MET protein is expressed without the 47 amino acids encoded by exon 14; endogenous in cells; host or cells: H596 (NSCLC / adenosquamous carcinoma)
Description: as §1

MET [5] = target: T1, MET; test: MET ubiquitination in A549 cells (immunoprecipitation/immunoblot); type: cell-based; set-up: cell lines expressing wild-type MET such as A549 and U87MG cells; endogenous in cells; host or cells: A549; conditions: 1 nM, 15 min, FIG. 12B
Description: Whether the anti-MET antibodies promote MET ubiquitination and degradation was investigated next. […] Cell lysates were precipitated with anti-ubiquitin antibody conjugated agarose (Santa Cruz) followed by immunoblotting with anti-MET antibody (Cell Signaling Technology). […] Thus, these antibodies promote receptor degradation utilizing the ubiquitination mechanism instead of protease-mediated shedding. This is in contrast with membrane protease-mediated receptor shedding observed previously with antibodies such as DN30 (Schleter, 2010, J. Biol. Chem. 285(34):26335-26340).

MET [6] = target: T1, MET; test: MET shedding ELISA (sMET-ECD release) in A549 cells; type: cell-based; set-up: cell lines expressing wild-type MET such as A549 cells; endogenous in cells; host or cells: A549; conditions: 24 hrs, 1 nM of antibody, FIG. 12A

`C[C@@H](Oc1cc(-c2cnn(C3CCNCC3)c2)cnc1N)c1c(Cl)ccc(F)c1Cl` [crizotinib] was tested, and the “MET protein levels, western blot” value [1] was “not observed”, the “activation of MET (phosphorylated MET), western blot” value [1] was “inhibited activation of MET” and the “activation of downstream signaling components Akt and MAPK (phosphorylation), western blot” value [1] was “reduces the activation of downstream signaling components Akt and MAPK”. For the same molecule, the “tumor growth (bioluminescence)” value (U87MG tumor cells) was “resulted in similar tumor growth”.

For HGF: MET ligand used to stimulate cells, the receptor degradation (MET [2]) was “approximately 80%”, the receptor degradation (MET [3]) was “approximately 80%” and the receptor degradation (MET [4]) was 30%. For the same molecule, the MET receptor ubiquitination (MET [5]) was “induced potent receptor ubiquitination”.

`CCCCCCCCCCCCCC(=O)O[C@@H]1[C@@H](C)[C@@]2(O)[C@@H](C=C(CO)C[C@]3(O)C(=O)C(C)=C[C@@H]23)[C@@H]2C(C)(C)[C@]12OC(C)=O` [PMA, phorbol 12-myristate 13-acetate] was tested, and the “MET shedding (release of sMET-ECD into culture medium)” value (MET [6]) was “induced substantial MET shedding”.
